Test results reported in ChEMBL document CHEMBL1201862, “PubChem BioAssay data set” (2004).
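Step 1: Grow cells in 96-well plates. Step 2: Expose to compound for 48 hours at 5 concentrations. Step 3: Interpolate endpoints linearly; if unreached, use highest concentration. GI50: concentration for 50% inhibition of growth.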 The source made the active and inactive calls. Rule as the data show it: active = GI50 up to about 1.1 µM and inactive = higher.

Tests used:
Test in all cases: NCI-60 cell line screen, 48 h
[1] = test system: NCI-H23
[2] = test system: HCT-116
[3] = test system: SNB-75
[4] = test system: SK-MEL-28
[5] = test system: IGROV-1
[6] = test system: MDA-MB-231
[7] = test system: SNB-19
[8] = test system: RXF 393
[9] = test system: SK-OV-3
[10] = test system: SF-295
[11] = test system: MOLT-4
[12] = test system: NCI-H460
[13] = test system: SN12C
[14] = test system: OVCAR-4
[15] = test system: TK-10
[16] = test system: CCRF-CEM
[17] = test system: PC-3
[18] = test system: A549
[19] = test system: HOP-92
[20] = test system: UACC-62
[21] = test system: NCI-H522
[22] = test system: BT-549
[23] = test system: MDA-MB-435
[24] = test system: EKVX
[25] = test system: LOX IMVI
[26] = test system: HL-60
[27] = test system: OVCAR-5
[28] = test system: M14
[29] = test system: MDA-N
[30] = test system: HT-29
[31] = test system: SK-MEL-5
[32] = test system: ACHN
[33] = test system: OVCAR-3
[34] = test system: OVCAR-8
[35] = test system: CAKI-1
[36] = test system: SF-539
[37] = test system: MCF7
[38] = test system: UACC-257
[39] = test system: SW-620
[40] = test system: U-251
[41] = test system: NCI/ADR-RES
[42] = test system: KM12
[43] = test system: NCI-H226
[44] = test system: SF-268
[45] = test system: COLO 205
[46] = test system: 786-0
[47] = test system: DU-145
[48] = test system: HCC 2998
[49] = test system: Hs-578T
[50] = test system: SK-MEL-2
[51] = test system: HCT-15
[52] = test system: HOP-62
[53] = test system: UO-31
[54] = test system: RPMI-8226
[55] = test system: Malme-3M
[56] = test system: A498
[57] = test system: K562
[58] = test system: SR
[59] = test system: T47D

SMILES: NC(=O)N/N=C(\Cc1cc(=O)oc2cc(O)ccc12)C(=O)Nc1ccccc1C(N)=O
- GI50 [1]: > 100 µM (inactive)
- GI50 [2]: > 100 µM (inactive)
- GI50 [3]: > 100 µM (inactive)
- GI50 [4]: > 100 µM (inactive)
- GI50 [5]: > 100 µM (inactive)
- GI50 [6]: > 100 µM (inactive)
- GI50 [7]: > 100 µM (inactive)
- GI50 [8]: > 100 µM (inactive)
- GI50 [9]: > 100 µM (inactive)
- GI50 [10]: > 100 µM (inactive)
- GI50 [11]: > 100 µM (inactive)
- GI50 [12]: > 100 µM (inactive)
- GI50 [13]: > 100 µM (inactive)
- GI50 [14]: > 100 µM (inactive)
- GI50 [15]: > 100 µM (inactive)
- GI50 [16]: > 100 µM (inactive)
- GI50 [17]: > 100 µM (inactive)
- GI50 [18]: > 100 µM (inactive)
- GI50 [19]: > 100 µM (inactive)
- GI50 [20]: > 100 µM (inactive)
- GI50 [21]: > 100 µM (inactive)
- GI50 [22]: > 100 µM (inactive)
- GI50 [23]: > 100 µM (inactive)
- GI50 [24]: > 100 µM (inactive)
- GI50 [25]: > 100 µM (inactive)
- GI50 [26]: > 100 µM (inactive)
- GI50 [27]: > 100 µM (inactive)
- GI50 [28]: > 100 µM (inactive)
- GI50 [29]: > 100 µM (inactive)
- GI50 [30]: > 100 µM (inactive)
- GI50 [31]: > 100 µM (inactive)
- GI50 [32]: > 100 µM (inactive)
- GI50 [33]: > 100 µM (inactive)
- GI50 [34]: > 100 µM (inactive)
- GI50 [35]: > 100 µM (inactive)
- GI50 [36]: > 100 µM (inactive)
- GI50 [37]: > 100 µM (inactive)
- GI50 [38]: > 100 µM (inactive)
- GI50 [39]: > 100 µM (inactive)
- GI50 [40]: > 100 µM (inactive)
- GI50 [41]: > 100 µM (inactive)
- GI50 [42]: > 100 µM (inactive)
- GI50 [43]: > 100 µM (inactive)
- GI50 [44]: > 100 µM (inactive)
- GI50 [45]: > 100 µM (inactive)
- GI50 [46]: > 100 µM (inactive)
- GI50 [47]: > 100 µM (inactive)
- GI50 [48]: 61 µM (inactive)
- GI50 [49]: > 100 µM (inactive)
- GI50 [50]: > 100 µM (inactive)
- GI50 [51]: > 100 µM
- GI50 [52]: > 100 µM (inactive)
- GI50 [53]: > 100 µM (inactive)

SMILES: O=C(NCCC1CN(C(=O)OCc2ccccc2)c2ccccc21)OCc1ccccc1 (stereo not drawn)
- GI50 [1]: > 100 µM (inactive)
- GI50 [2]: 71.9 µM (inactive)
- GI50 [3]: > 100 µM (inactive)
- GI50 [4]: > 100 µM (inactive)
- GI50 [5]: > 100 µM (inactive)
- GI50 [6]: > 100 µM (inactive)
- GI50 [7]: > 100 µM (inactive)
- GI50 [8]: > 100 µM (inactive)
- GI50 [9]: > 100 µM (inactive)
- GI50 [10]: > 100 µM (inactive)
- GI50 [11]: > 100 µM (inactive)
- GI50 [12]: 96.8 µM (inactive)
- GI50 [14]: > 100 µM (inactive)
- GI50 [15]: > 100 µM (inactive)
- GI50 [17]: > 100 µM (inactive)
- GI50 [18]: 85.3 µM (inactive)
- GI50 [19]: > 100 µM (inactive)
- GI50 [54]: > 100 µM (inactive)
- GI50 [20]: > 100 µM (inactive)
- GI50 [21]: 90.6 µM (inactive)
- GI50 [22]: > 100 µM (inactive)
- GI50 [23]: > 100 µM (inactive)
- GI50 [24]: 64.6 µM (inactive)
- GI50 [27]: > 100 µM (inactive)
- GI50 [55]: > 100 µM (inactive)
- GI50 [28]: > 100 µM (inactive)
- GI50 [29]: > 100 µM (inactive)
- GI50 [30]: > 100 µM (inactive)
- GI50 [31]: > 100 µM (inactive)
- GI50 [32]: > 100 µM (inactive)
- GI50 [33]: > 100 µM (inactive)
- GI50 [34]: > 100 µM (inactive)
- GI50 [35]: > 100 µM (inactive)
- GI50 [56]: > 100 µM (inactive)
- GI50 [37]: 60.4 µM (inactive)
- GI50 [38]: > 100 µM (inactive)
- GI50 [39]: > 100 µM (inactive)
- GI50 [40]: > 100 µM (inactive)
- GI50 [41]: > 100 µM (inactive)
- GI50 [42]: > 100 µM (inactive)
- GI50 [44]: > 100 µM (inactive)
- GI50 [45]: > 100 µM (inactive)
- GI50 [46]: > 100 µM (inactive)
- GI50 [57]: > 100 µM (inactive)
- GI50 [47]: > 100 µM (inactive)
- GI50 [48]: > 100 µM (inactive)
- GI50 [49]: > 100 µM (inactive)
- GI50 [50]: > 100 µM (inactive)
- GI50 [51]: > 100 µM
- GI50 [52]: > 100 µM (inactive)
- GI50 [53]: > 100 µM (inactive)

SMILES: C1=C2SSC3=CC=C(SSc4ccc(s4)SSC4=CC=C(SSC(=C1)S2)S4)S3
- GI50 [1]: > 100 µM (inactive)
- GI50 [2]: > 100 µM (inactive)
- GI50 [3]: > 100 µM (inactive)
- GI50 [4]: > 100 µM (inactive)
- GI50 [5]: > 100 µM (inactive)
- GI50 [6]: > 100 µM (inactive)
- GI50 [7]: > 100 µM (inactive)
- GI50 [8]: > 100 µM (inactive)
- GI50 [9]: > 100 µM (inactive)
- GI50 [10]: > 100 µM (inactive)
- GI50 [11]: > 100 µM (inactive)
- GI50 [12]: > 100 µM (inactive)
- GI50 [13]: > 100 µM (inactive)
- GI50 [14]: > 100 µM (inactive)
- GI50 [15]: > 100 µM (inactive)
- GI50 [16]: > 100 µM (inactive)
- GI50 [17]: > 100 µM (inactive)
- GI50 [18]: > 100 µM (inactive)
- GI50 [19]: > 100 µM (inactive)
- GI50 [54]: > 100 µM (inactive)
- GI50 [21]: > 100 µM (inactive)
- GI50 [22]: > 100 µM (inactive)
- GI50 [23]: > 100 µM (inactive)
- GI50 [24]: > 100 µM (inactive)
- GI50 [25]: > 100 µM (inactive)
- GI50 [27]: > 100 µM (inactive)
- GI50 [55]: > 100 µM (inactive)
- GI50 [28]: > 100 µM (inactive)
- GI50 [29]: > 100 µM (inactive)
- GI50 [30]: > 100 µM (inactive)
- GI50 [31]: > 100 µM (inactive)
- GI50 [32]: > 100 µM (inactive)
- GI50 [33]: > 100 µM (inactive)
- GI50 [34]: > 100 µM (inactive)
- GI50 [35]: > 100 µM (inactive)
- GI50 [56]: > 100 µM (inactive)
- GI50 [37]: > 100 µM (inactive)
- GI50 [38]: > 100 µM (inactive)
- GI50 [39]: > 100 µM (inactive)
- GI50 [40]: > 100 µM (inactive)
- GI50 [41]: > 100 µM (inactive)
- GI50 [42]: > 100 µM (inactive)
- GI50 [43]: > 100 µM (inactive)
- GI50 [44]: > 100 µM (inactive)
- GI50 [45]: > 100 µM (inactive)
- GI50 [46]: > 100 µM (inactive)
- GI50 [58]: > 100 µM (inactive)
- GI50 [59]: > 100 µM (inactive)
- GI50 [57]: > 100 µM (inactive)
- GI50 [47]: > 100 µM (inactive)
- GI50 [48]: > 100 µM (inactive)
- GI50 [50]: > 100 µM (inactive)
- GI50 [51]: > 100 µM
- GI50 [52]: > 100 µM (inactive)
- GI50 [53]: > 100 µM (inactive)

SMILES: OCC1NC(CO)C(O)C1O (stereo not drawn)
- GI50 [7]: > 100 µM (inactive)
- GI50 [8]: > 100 µM (inactive)
- GI50 [13]: > 10 µM (inactive)
- GI50 [14]: > 100 µM (inactive)
- GI50 [16]: > 100 µM (inactive)
- GI50 [17]: > 100 µM (inactive)
- GI50 [54]: > 100 µM (inactive)
- GI50 [22]: > 100 µM (inactive)
- GI50 [26]: > 100 µM (inactive)
- GI50 [27]: > 100 µM (inactive)
- GI50 [29]: > 100 µM (inactive)
- GI50 [33]: > 100 µM (inactive)
- GI50 [38]: > 100 µM (inactive)
- GI50 [39]: > 100 µM (inactive)
- GI50 [40]: > 100 µM (inactive)
- GI50 [58]: > 100 µM (inactive)
- GI50 [49]: > 100 µM (inactive)
- GI50 [50]: > 100 µM (inactive)
- GI50 [52]: > 100 µM (inactive)
